# Reference: US20200397795A1, “PROPHYLACTIC TREATMENT OF VENOUS THROMBOEMBOLISM” (JANSSEN PHARMACEUTICALS, INC., priority 2019, published 2020)
# System: venous thromboembolism (VTE) in patients hospitalized for acute medical illness
# Assay: MAGELLAN (Study 1): efficacy of oral rivaroxaban 10 mg OD 35 days vs sc enoxaparin 40 mg OD 10 days then placebo
# Format: in vivo
# Method: The objective of Study 1 (MAGELLAN or MAGELLAN Study) was to compare efficacy and safety of venous thromboembolism (VTE) prophylaxis with oral rivaroxaban 10 mg once daily administered for 35±4 days (hereafter referred to as 35 days or Day 35) to subcutaneous enoxaparin 40 mg once daily (OD) administered for 10±4 days (hereafter referred to as 10 days or Day 10) in men and women aged 40 years or above, who have been hospitalized for a medical illness.
# Diagnosis and main criteria for inclusion in Study 1 was men and women 40 years or above and at risk for VTE being hospitalized for acute medical illness conditions, including: heart failure (New York Heart Association [NYHA] class III or IV); active cancer (e.g., admitted for chemotherapy or for the treatment of a complication of active cancer); acute ischemic stroke; acute infectious and inflammatory diseases, including acute rheumatic diseases; and acute respiratory insufficiency. Also at least one additional risk factor for VTE, including: severe varicosis (varicosities); chronic venous insufficiency; history of cancer; history of deep vein thrombosis (DVT) or pulmonary embolism (PE); history of heart failure (NYHA class III or IV); thrombophilia (hereditary or acquired); recent major surgery (6-12 weeks); recent serious trauma (6-12 weeks); hormone replacement therapy; advanced age greater than or equal to 75 years; morbid obesity (body mass index (BMI) 35 kg/m^2 or higher); and acute infectious disease contributing to hospitalization.
# The study was conducted in a prospective, randomized, double-blind, double dummy, active comparator-controlled, multicenter and multinational design. There were 8101 subjects were randomized at 556 study centers in 52 countries to one of the two treatment groups. Of the 8101 randomized subjects, 4050 were randomized to active rivaroxaban and 4051 were randomized to active enoxaparin.
# Primary Endpoints: The primary efficacy variable was a composite of the number of events of: asymptomatic proximal DVT in lower extremity detected by mandatory bilateral lower extremity venous ultrasonography; symptomatic DVT in lower extremity, proximal or distal; symptomatic, non-fatal PE; and VTE-related death defined as either a well-documented fatal PE, or sudden death with no other plausible explanation. The two primary efficacy endpoints were (i) test of superiority at Day 35 (Days 29-41, inclusive) and (ii) test of non-inferiority at Day 10 (Days 6-15, inclusive).
# Secondary Endpoints: The first major secondary efficacy endpoint was defined as a composite of the test of superiority at Day 35 with component of VTE-related death substituted by all-cause mortality, up to Day 35. The second major efficacy secondary efficacy endpoint was the test for superiority at Day 10 using the same composite endpoint as the Day 10 non-inferiority test.
# For both primary efficacy endpoints, the relative risk ratio (rivaroxaban/enoxaparin) with respect to the incidences of the primary efficacy endpoint was estimated based on a stratified estimator using Mantel-Haenszel weights (based on sample sizes by geographic region). The corresponding asymptotic 2-sided 95% confidence interval based on the approximation to the normal distribution was determined. Sensitivity analyses were performed for the primary efficacy endpoints.
# The primary efficacy variable was a composite of the number of events of (1) asymptomatic proximal DVT in lower extremity detected by mandatory bilateral lower extremity venous ultrasonography; (2) symptomatic DVT in lower extremity, proximal or distal; (3) symptomatic, nonfatal PE; and (4) VTE-related death. […]
# [1] = Day 10 + 5, PP Day 10 plus major and clinically relevant bleeds
# [2] = Day 10 + 5, per protocol Day 10 analysis set
# [3] = Day 10 + 5 up to Day 35 + 6, mITT (Day 10 to Day 35) analysis set
# [4] = Day 10 + 5 up to Day 35 + 6, mITT (Day 10 to Day 35) analysis set, listed as rivaroxaban
# [5] = Day 35 + 6, mITT Day 35 analysis set
# [6] = Day 35 + 6, mITT Day 35 analysis set, listed as rivaroxaban
# [7] = Day 35 + 6, mITT Day 35 plus major and clinically relevant bleeds
# [8] = Day 35, mITT Day 35 analysis set
# [9] = rivaroxaban-placebo phase (Day 10 to Day 35), mITT (Day 10 to Day 35)
smiles,measurement,setting,value
"O=C(NC[C@H]1CN(c2ccc(N3CCOCC3=O)cc2)C(=O)O1)c1ccc(Cl)s1 [Rivaroxaban, 5-chloro-N-({(5S)-2-oxo-3-[4-(3-oxo-4-morpholinyl)phenyl]-1,3,oxazolidin-5-yl}methyl)-2-thiophenecarboxamide]","Major vascular events (CV death, acute myocardial infarction, or acute ischemic stroke), incidence",Day 10,1.0%
same,"Symptomatic VTE excluding VTE-related death, incidence",Day 10,0.5%
same,"Symptomatic VTE including death, incidence",Day 10,0.7%
same,Net clinical benefit component: asymptomatic lower proximal deep vein thrombosis,[1],71 (2.4%)
same,Net clinical benefit component: clinically relevant non-major bleeding,[1],51 (1.7%)
same,Net clinical benefit component: death (pulmonary embolism),[1],3 (0.1%)
same,Net clinical benefit component: major bleeding,[1],9 (0.3%)
same,Net clinical benefit component: symptomatic deep vein thrombosis in lower extremity,[1],7 (0.2%)
same,Net clinical benefit component: symptomatic non-fatal pulmonary embolism,[1],6 (0.2%)
same,Net clinical benefit component: venous thromboembolism related death,[1],3 (0.1%)
same,"Net clinical benefit, any event, incidence",[1],134 (4.5%)
same,"Net clinical benefit, any event, incidence","Day 10 + 5, PP Day 10 plus major and clinically relevant bleeds, listed as rivaroxaban",4.5%
same,"Asymptomatic proximal deep vein thrombosis in lower extremity, incidence",[2],71 (2.4%)
same,"Death (pulmonary embolism cannot be excluded), incidence",[2],3 (0.1%)
same,"Primary efficacy composite, any event, incidence",[2],78 (2.7%)
same,"Symptomatic deep vein thrombosis in lower extremity, incidence",[2],7 (0.2%)
same,"Venous thromboembolism related death, incidence",[2],3 (0.1%)
same,"Primary efficacy composite, any event, incidence","Day 10 + 5, per protocol Day 10 analysis set, listed as rivaroxaban",2.7%
same,"Asymptomatic proximal deep vein thrombosis in lower extremity, incidence",[3],81 (2.1%)
same,"Death (pulmonary embolism cannot be excluded), incidence",[3],8 (0.3%)
same,"Death (pulmonary embolism), incidence",[3],1 (<0.1%)
same,"Symptomatic deep vein thrombosis in lower extremity, incidence",[3],3 (0.1%)
same,"Symptomatic non-fatal pulmonary embolism, incidence",[3],1 (<0.1%)
same,"Venous thromboembolism related death, incidence",[3],9 (0.3%)
same,"Primary efficacy composite, any event, incidence","Day 10 + 5 up to Day 35 + 6, mITT (Day 10 to Day 35) analysis set, rivaroxaban-placebo phase",72 (2.5%)
same,"Primary efficacy composite, any event, incidence","Day 10 + 5 up to Day 35 + 6, mITT (Day 10 to Day 35) analysis set, rivaroxaban-placebo phase, listed as rivaroxaban",2.5%
same,"Asymptomatic proximal deep vein thrombosis in lower extremity, incidence",[4],2.1%
same,"Venous thromboembolism related death, incidence",[4],0.3%
same,"Relative risk (rivaroxaban/enoxaparin), primary efficacy composite","Day 10, PP Day 10 analysis set",0.968
same,"Relative risk reduction, primary efficacy composite","Day 10, PP Day 10 analysis set",3.25%
same,"Relative risk vs enoxaparin, subgroup","Day 10 PP, active cancer",2.500
same,"Relative risk vs enoxaparin, subgroup","Day 10 PP, age subgroup 65 to <75 years",1.88
same,"Relative risk vs enoxaparin, subgroup","Day 10 PP, complete immobilization >6 days post randomization",0.671
same,"Relative risk vs enoxaparin, subgroup","Day 10 PP, complete immobilization post randomization 4-6 days",1.75
same,"Major vascular events, incidence",Day 35,1.8%
same,"Symptomatic VTE excluding VTE-related death, incidence",Day 35,0.6%
same,"Symptomatic VTE including death, incidence",Day 35,1.0%
same,"Asymptomatic proximal deep vein thrombosis in lower extremity, incidence",[5],103 (3.5%)
same,"Death (pulmonary embolism cannot be excluded), incidence",[5],18 (0.6%)
same,"Death (pulmonary embolism), incidence",[5],1 (<0.1%)
same,"Primary efficacy composite, any event, incidence",[5],131 (4.4%)
same,"Symptomatic deep vein thrombosis in lower extremity, incidence",[5],13 (0.4%)
same,"Symptomatic non-fatal pulmonary embolism, incidence",[5],10 (0.3%)
same,"Venous thromboembolism related death, incidence",[5],19 (0.6%)
same,"Asymptomatic proximal deep vein thrombosis in lower extremity, incidence",[6],3.5%
same,"Primary efficacy composite, any event, incidence",[6],4.4%
same,"Venous thromboembolism related death, incidence",[6],0.6%
same,Net clinical benefit component: asymptomatic lower proximal deep vein thrombosis,[7],104 (3.4%)
same,Net clinical benefit component: clinically relevant non-major bleeding,[7],124 (4.1%)
same,Net clinical benefit component: death (pulmonary embolism cannot be excluded),[7],18 (0.6%)
same,Net clinical benefit component: death (pulmonary embolism),[7],1 (<0.1%)
same,Net clinical benefit component: major bleeding,[7],43 (1.4%)
same,Net clinical benefit component: symptomatic deep vein thrombosis in lower extremity,[7],13 (0.4%)
same,Net clinical benefit component: symptomatic non-fatal pulmonary embolism,[7],10 (0.3%)
same,Net clinical benefit component: venous thromboembolism related death,[7],19 (0.6%)
same,"Net clinical benefit, any event, incidence",[7],286 (9.4%)
same,"Net clinical benefit, any event, incidence","Day 35 + 6, mITT Day 35 plus major and clinically relevant bleeds, listed as rivaroxaban",9.4%
same,"Relative risk (rivaroxaban/enoxaparin), primary efficacy composite",[8],0.771
same,"Relative risk reduction, primary efficacy composite",[8],22.89%
same,"Composite endpoint including all-cause mortality, incidence","Day 35, mITT Day 35 expanded",8.6%
same,"Relative risk, composite endpoint including all-cause mortality","Day 35, mITT Day 35 expanded",0.931
same,"Relative risk vs enoxaparin, subgroup","Day 35 mITT, active cancer",1.340
same,"Relative risk vs enoxaparin, subgroup","Day 35 mITT, acute infectious and inflammatory disease",0.657
same,"Relative risk vs enoxaparin, subgroup","Day 35 mITT, age subgroup 75 years",0.624
same,"Relative risk vs enoxaparin, subgroup","Day 35 mITT, subjects in Western Europe (including Australia, New Zealand, Israel)",0.5
same,"All-cause mortality, incidence",Day 90,6.7%
same,"Major vascular events, incidence",Day 90,2.8%
same,"Symptomatic VTE excluding VTE-related death, incidence",Day 90,0.7%
same,"Symptomatic VTE including death, incidence",Day 90,1.7%
same,"Relative risk reduction, primary efficacy composite",[9],35.14%
same,"Relative risk, primary efficacy composite",[9],0.649
